The source of these data is ChEMBL document CHEMBL4819090, “Discovery of a new series of PI3K-δ inhibitors from Virtual Screening” (Bioorg Med Chem Lett, 2021).

Data set [1] has as its target Phosphatidylinositol 4,5-bisphosphate 3-kinase catalytic subunit gamma isoform (Homo sapiens, UniProt P48736). Put plainly: Inhibition of PI3Kgamma (unknown origin) by HTRF assay. In general terms: In TR-FRET formats the signal depends on donor and acceptor labels being close together.
Data set [2] addresses Phosphatidylinositol 4,5-bisphosphate 3-kinase catalytic subunit beta isoform (Homo sapiens, UniProt P42338). Put plainly: Inhibition of PI3Kbeta (unknown origin) by HTRF assay.
Data set [3] addresses Phosphatidylinositol 4,5-bisphosphate 3-kinase catalytic subunit alpha isoform (Homo sapiens, UniProt P42336). Put plainly: Inhibition of PI3Kalpha (unknown origin) by HTRF assay.
Data set [4] is described as follows: Volume of distribution in Wistar Han rat at 2 mg/kg, iv. Format: ADME, organism-based. The following applies: in vivo.
A short description of data set [5]: Clearance in Wistar Han rat at 2 mg/kg, iv. It is filed as ADME, organism-based. The following applies: in vivo.
Data set [6] is described as follows: Half life in Wistar Han rat at 2 mg/kg, iv. The following applies: in vivo. It is filed as ADME, organism-based.

Phosphatidylinositol 4,5-bisphosphate 3-kinase catalytic subunit gamma isoform, sequence (P48736 whole entry, canonical isoform): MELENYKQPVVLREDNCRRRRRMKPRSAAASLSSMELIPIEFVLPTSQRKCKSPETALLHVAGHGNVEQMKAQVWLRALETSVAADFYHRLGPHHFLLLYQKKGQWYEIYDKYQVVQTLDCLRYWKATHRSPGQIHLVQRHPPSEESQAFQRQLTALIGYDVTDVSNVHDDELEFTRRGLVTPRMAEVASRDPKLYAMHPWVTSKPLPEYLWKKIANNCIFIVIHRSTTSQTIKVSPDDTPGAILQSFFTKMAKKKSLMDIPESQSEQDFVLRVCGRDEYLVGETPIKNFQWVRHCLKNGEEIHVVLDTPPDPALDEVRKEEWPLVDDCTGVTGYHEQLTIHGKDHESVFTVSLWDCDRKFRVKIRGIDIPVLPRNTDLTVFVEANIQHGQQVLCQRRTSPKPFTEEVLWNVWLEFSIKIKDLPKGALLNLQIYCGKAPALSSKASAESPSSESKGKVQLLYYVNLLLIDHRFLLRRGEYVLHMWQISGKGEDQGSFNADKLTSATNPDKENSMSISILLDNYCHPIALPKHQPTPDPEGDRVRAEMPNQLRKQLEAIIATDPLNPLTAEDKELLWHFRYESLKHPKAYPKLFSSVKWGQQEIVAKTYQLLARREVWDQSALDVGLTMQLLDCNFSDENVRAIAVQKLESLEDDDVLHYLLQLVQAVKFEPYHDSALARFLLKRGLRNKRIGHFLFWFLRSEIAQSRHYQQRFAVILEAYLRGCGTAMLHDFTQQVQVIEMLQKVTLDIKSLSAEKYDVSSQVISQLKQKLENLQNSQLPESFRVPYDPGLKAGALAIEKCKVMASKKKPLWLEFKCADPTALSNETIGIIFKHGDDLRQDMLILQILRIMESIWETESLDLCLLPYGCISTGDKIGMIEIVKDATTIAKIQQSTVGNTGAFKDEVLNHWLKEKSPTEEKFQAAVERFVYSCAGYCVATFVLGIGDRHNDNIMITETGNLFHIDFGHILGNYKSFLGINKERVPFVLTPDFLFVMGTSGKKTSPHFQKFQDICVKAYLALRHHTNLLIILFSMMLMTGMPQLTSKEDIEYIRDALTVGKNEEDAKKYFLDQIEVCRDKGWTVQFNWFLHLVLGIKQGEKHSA
Phosphatidylinositol 4,5-bisphosphate 3-kinase catalytic subunit alpha isoform, sequence (P42336 whole entry, canonical isoform): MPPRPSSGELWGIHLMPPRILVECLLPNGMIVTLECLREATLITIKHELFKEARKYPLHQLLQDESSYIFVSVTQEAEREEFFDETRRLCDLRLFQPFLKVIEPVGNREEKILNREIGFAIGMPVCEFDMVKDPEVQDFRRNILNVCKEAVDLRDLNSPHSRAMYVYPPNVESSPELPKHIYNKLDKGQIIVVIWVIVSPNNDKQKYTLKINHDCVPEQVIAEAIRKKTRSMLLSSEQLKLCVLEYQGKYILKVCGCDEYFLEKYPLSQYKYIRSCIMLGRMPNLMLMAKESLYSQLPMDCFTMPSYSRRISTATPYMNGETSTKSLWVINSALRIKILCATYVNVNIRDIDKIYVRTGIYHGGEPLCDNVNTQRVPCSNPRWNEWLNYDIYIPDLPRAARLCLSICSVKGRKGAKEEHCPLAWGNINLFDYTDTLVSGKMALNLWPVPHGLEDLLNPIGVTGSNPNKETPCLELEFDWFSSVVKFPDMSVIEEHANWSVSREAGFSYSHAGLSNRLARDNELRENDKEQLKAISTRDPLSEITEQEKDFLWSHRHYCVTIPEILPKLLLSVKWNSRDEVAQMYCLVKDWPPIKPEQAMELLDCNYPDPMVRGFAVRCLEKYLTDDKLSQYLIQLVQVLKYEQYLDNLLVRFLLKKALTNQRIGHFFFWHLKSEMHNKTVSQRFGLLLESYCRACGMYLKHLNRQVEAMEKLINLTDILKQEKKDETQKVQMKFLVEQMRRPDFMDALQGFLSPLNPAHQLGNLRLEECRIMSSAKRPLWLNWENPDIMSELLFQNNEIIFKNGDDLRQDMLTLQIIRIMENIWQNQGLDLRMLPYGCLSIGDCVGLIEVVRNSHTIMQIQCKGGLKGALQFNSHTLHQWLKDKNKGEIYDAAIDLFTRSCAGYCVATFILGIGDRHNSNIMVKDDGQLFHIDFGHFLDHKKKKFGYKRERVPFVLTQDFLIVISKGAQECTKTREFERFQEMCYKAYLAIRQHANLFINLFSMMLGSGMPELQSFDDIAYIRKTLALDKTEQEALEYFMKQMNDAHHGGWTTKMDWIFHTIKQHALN
Phosphatidylinositol 4,5-bisphosphate 3-kinase catalytic subunit beta isoform, sequence (P42338 whole entry, canonical isoform): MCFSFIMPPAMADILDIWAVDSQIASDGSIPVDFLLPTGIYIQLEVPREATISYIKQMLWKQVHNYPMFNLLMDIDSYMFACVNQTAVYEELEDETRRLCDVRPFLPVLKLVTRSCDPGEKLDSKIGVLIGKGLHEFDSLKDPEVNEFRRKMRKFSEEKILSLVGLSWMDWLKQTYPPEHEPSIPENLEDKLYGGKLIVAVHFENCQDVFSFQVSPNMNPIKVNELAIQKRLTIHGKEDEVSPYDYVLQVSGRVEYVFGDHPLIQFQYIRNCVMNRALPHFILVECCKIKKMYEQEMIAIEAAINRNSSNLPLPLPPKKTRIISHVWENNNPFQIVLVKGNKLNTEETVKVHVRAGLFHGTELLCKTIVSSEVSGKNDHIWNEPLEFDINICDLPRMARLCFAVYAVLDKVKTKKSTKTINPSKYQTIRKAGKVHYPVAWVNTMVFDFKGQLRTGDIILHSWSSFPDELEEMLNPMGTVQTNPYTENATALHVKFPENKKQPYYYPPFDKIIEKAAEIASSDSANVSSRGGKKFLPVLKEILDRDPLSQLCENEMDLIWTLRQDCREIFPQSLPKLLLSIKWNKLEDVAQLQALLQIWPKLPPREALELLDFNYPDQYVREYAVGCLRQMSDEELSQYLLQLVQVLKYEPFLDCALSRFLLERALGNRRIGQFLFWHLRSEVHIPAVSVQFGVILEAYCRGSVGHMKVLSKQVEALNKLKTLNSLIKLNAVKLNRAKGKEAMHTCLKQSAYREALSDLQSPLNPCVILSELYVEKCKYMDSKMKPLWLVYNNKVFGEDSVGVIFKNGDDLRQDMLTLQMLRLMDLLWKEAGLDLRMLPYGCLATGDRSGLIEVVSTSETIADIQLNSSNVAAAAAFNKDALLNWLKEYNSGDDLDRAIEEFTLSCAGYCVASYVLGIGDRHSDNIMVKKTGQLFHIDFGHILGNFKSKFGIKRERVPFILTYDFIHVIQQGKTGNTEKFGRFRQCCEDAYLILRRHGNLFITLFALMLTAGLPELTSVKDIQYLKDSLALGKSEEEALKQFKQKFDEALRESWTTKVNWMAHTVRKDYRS

What is called IC50 is the concentration at which inhibition is half-maximal. A high value points to weaker potency. Turning to `O=C1NCc2c1cc(-c1cccc(F)c1)cc2-c1cc(O)cc(F)c1`, the IC50 in data set [1] is > 10 µM. As for `Nc1ncc(-c2cc(OC3CN(C(=O)C4CC4)C3)cc3c2CNC3=O)cc1C(F)(F)F`, the IC50 in data set [1] is > 10 µM. Take `O=C1NCc2c1cc(NCCCN1CCOCC1)cc2-c1cccc(O)c1`: the IC50 in data set [1] is > 50 µM; in data set [2], 5.15 µM; in data set [3], 25 µM. For the molecule `C[C@@H]1CN(Cc2nnc(-c3cc4c(c(-c5cc(O)cc(F)c5)c3)CNC4=O)o2)C[C@H](C)O1`, in data set [1], the midpoint of inhibition, the IC50, lay at 7.39 µM. This lies in the single-digit micromolar range. In the case of `O=C1NCc2c1cccc2-c1cc(O)cc(F)c1`, the IC50 in data set [1] was > 10 µM. Turning to `O=C1NCc2c1cc(O[C@@H]1CCN(C(=O)C3CC3)C1)cc2-c1cnc(F)c(O)c1`, the IC50 in data set [1] is 1.09 µM. In the case of `O=C1NCc2c1cc(O[C@@H]1CCN(C(=O)C3CCOCC3)C1)cc2-c1cc(O)cc(F)c1`, the 50% inhibitory concentration (IC50) in data set [1] came out at 3.13 µM. On to `Cn1ncc2cc(-c3cc(OC4CN(C(=O)C5CC5)C4)cc4c3CNC4=O)cnc21`, for which the IC50 in data set [1] is > 10 µM. In data set [1], `O=C1NCc2c1cc(NCCCc1ccccc1)cc2-c1cc(O)cc(F)c1` had an IC50 of 2.02 µM.

Consider `Cc1ncc(-c2cc(O[C@@H]3CCN(C(=O)C4CC4)C3)cc3c2CNC3=O)cc1NS(C)(=O)=O`, for which the IC50 in data set [1] was found to be 3.01 µM.

For the molecule `CNc1ncc(-c2cc(OC3CN(C(=O)C4C[C@H]4C)C3)cc3c2CNC3=O)cc1C(F)(F)F` (stereo partly drawn), the IC50 in data set [1] is > 10 µM.

Molecule `O=C1NCc2c1cc(O[C@@H]1CCN(C(=O)C3CC(F)(F)C3)C1)cc2-c1cc(O)cc(F)c1` had an IC50 in data set [1] of 1.35 µM. In turn, `O=C1NCc2c1cc(NCCCc1ccccc1)cc2-c1cccc(O)c1` had an IC50 in data set [1] of 4.33 µM. The same measure, in the same setting: as for `O=C1NCc2c1cc(O[C@@H]1CCN(C(=O)C3CC3)C1)cc2-c1cc(O)cc(F)c1`, the figure is 1.8 µM.

Usually Vd stands for a proportionality between amount in the body and measured concentration, not a real space. Read a low Vd as confinement near the circulation. One may read the clearance as the volume of plasma or blood freed of the substance per unit of time. The term half-life denotes how long it takes for the measured level to halve. In the case of `O=C1NCc2c1cc(OC1CN(C(=O)C3CC3)C1)cc2-c1ccc(OC(F)F)nc1`, the IC50 in data set [1] is > 10 µM. The molecule further yielded a volume of distribution (Vd) in data set [4] of 1.4 L/kg. This molecule displayed a clearance in data set [5] of 0.378 L/h/kg. The half-life in data set [6] was 3.7 h. In the case of `O=C1NCc2c1cc(OC1CN(C(=O)C3CC3)C1)cc2-c1cnc(Cl)c(OC(F)F)c1`, in data set [1], the half-inhibitory concentration (IC50) was > 10 µM. In turn, `COc1ccc(-c2cc(O[C@@H]3CCN(C(=O)C4CC4)C3)cc3c2CNC3=O)cn1` came in with an IC50 in data set [1] of 4.74 µM.

As to `O=C1NCc2c1cc(O[C@@H]1CCN(C(=O)C3CC3)C1)cc2-c1cncc(O)c1`, the IC50 in data set [1] was 3.06 µM.
